Measurements as given in PMC9519869, “Synthesis, biological evaluation, and molecular modeling studies of new benzoxazole derivatives as PARP-2 inhibitors targeting breast cancer” (Scientific Reports, 2022).

Columns and labels:
MDA-MB-231 = assay: In vitro cytotoxicity screening, MTT assay; conditions: Homo sapiens, MDA-MB-231, 24 h, read-out: In vitro Cytotoxicity (IC50, µM) MDA-MB-231
Description: Two human breast cancer cell lines, namely, MDA-MB-231 and MCF-7 were obtained from American Type Culture Collection (ATCC) via a holding company for biological products and vaccines (VACSERA), Cairo, Egypt. […] The reagents used were RPMI-1640 medium, MTT, DMSO (sigma co., St. Louis, USA), and Fetal bovine serum (GIBCO, UK). […] MTT is a colorimetric assay based on the conversion of the yellow tetrazolium bromide (MTT) to a purple formazan derivative by mitochondrial succinate dehydrogenase in viable cells. Cell lines were cultured in RPMI-1640 medium with 10% foetal bovine serum. Antibiotics added were 100 units/ml penicillin and 100 µg/ml streptomycin maintained at 37 °C in a 5% CO2 incubator. The cell lines were seeded at a density of approximately 1.0 × 10 ^4 cells/well in a 96-well plate at 37 °C for 48 h under 5% CO2. Different concentrations of compounds were added and incubated for 24 h. After 24 h of drug treatment, 20 µl of MTT staining solution at 5 mg/ml was added to each well and incubated for 4 h at 37 °C. After 4 h, 100 µl of dimethyl sulfoxide (DMSO) were added into each well to dissolve the purple formazan crystals formed. The absorbance was recorded at 570 nm using a plate reader (EXL 800, USA). The relative cell viability in percentage was calculated as (A570 of treated samples/A570 of untreated sample) X 100 [22],[23].

PARP-2 enzyme = biological target: T1, PARP-2 enzyme (Homo sapiens, UniProt Q9UGN5); assay: Poly (ADP-ribose) polymerase 2 (PARP-2) inhibition assay (colorimetric kit); format: biochemical; conditions: for IC50: in vitro enzyme assay
T1 construct: purchased BPS Bioscience 80,581
T1 sequence (Q9UGN5 whole entry): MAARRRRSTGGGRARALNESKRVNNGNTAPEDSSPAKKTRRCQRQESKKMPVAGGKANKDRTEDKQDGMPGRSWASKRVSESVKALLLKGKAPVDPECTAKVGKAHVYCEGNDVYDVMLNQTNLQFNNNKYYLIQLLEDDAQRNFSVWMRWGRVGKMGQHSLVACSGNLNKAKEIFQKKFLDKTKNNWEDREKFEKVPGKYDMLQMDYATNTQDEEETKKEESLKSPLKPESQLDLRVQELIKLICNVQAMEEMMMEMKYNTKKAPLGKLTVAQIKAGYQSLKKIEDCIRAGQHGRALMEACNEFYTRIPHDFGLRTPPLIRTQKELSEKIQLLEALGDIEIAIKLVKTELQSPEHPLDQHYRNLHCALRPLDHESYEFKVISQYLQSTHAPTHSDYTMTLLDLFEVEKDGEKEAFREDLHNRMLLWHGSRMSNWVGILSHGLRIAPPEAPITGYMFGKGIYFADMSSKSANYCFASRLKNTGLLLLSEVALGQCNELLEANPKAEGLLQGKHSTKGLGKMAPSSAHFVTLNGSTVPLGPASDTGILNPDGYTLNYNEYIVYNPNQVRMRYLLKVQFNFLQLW
Procedure: Results were expressed as IC50 values (Table 2).
The PARP-2 inhibitory activity of the test compounds was assayed using PARP-2 Colorimetric Activity Assay Kit (BPS Bioscience, catalog 80,581, San Diego, CA, USA) following the manufacturer’s protocol. Briefly, histone protein mixture was coated on a 96-well microtiter plate and incubated at 4 °C overnight, washed with phosphate-buffered saline with tween-20 (PBST) three times then, the wells were blocked by adding blocking buffer 3 and incubated at room temperature for 60–90 min. After that, the plate was washed with PBST buffer three times. The master mixture which contains the PARP buffer, PARP assay mixture, activated DNA and distilled water was added to each well then, the inhibitor solution (test compound) was added. The reaction was initiated by adding PARP-2 enzyme to the wells and the plate was incubated for 1 h at room temperature. After 1 h, the reaction mixture was discarded, and the plate was washed with PBST buffer three times. Finally, the plate was treated with Streptavidin–Horseradish Peroxidase (HRP) and incubated for 30 min at room temperature and then washed with PBST buffer. The colorimetric HRP substrate was added to each well and incubated at room temperature until the positive control well developed blue color. Sulphuric acid was added to each well after the blue color development. The absorbance was read at 450 nm using UV/Vis spectrophotometer microplate reader.
Suppl. S2. In vitro PARP-2 enzyme inhibition assay
Researcher : Dr. Nadeen Ghobashy email:elghobashynadeen@gmail.com mob.01008873340
Reader : ROBONIK P2000 Eliza Reader wl 450 nm

melting point | %inh of PARP-2 (Table S2 raw data) (PARP-2 enzyme; conc 0.01 (ng/ml)) | %inh of PARP-2 (Table S2 raw data) (PARP-2 enzyme; conc 0.1 (ng/ml)) | %inh of PARP-2 (Table S2 raw data) (PARP-2 enzyme; conc 1 (ng/ml)) | %inh of PARP-2 (Table S2 raw data) (PARP-2 enzyme; conc 10 (ng/ml)) | IC50 (PARP-2 enzyme) | SMILES | IC50 (MDA-MB-231)
218 to 220 °C | – | – | – | – | – | O=C(CCl)Nc1ccc(-c2nc3cc(Cl)ccc3o2)cc1 [Compound 4, 2-chloro-N-(4-(5-chlorobenzoxazol-2-yl)phenyl)acetamide] | 43.2 ± 2.7 µM
210 to 212 °C | – | – | – | – | – | O=C(CCCl)Nc1ccc(-c2nc3cc(Cl)ccc3o2)cc1 [Compound 5, 3-chloro-N-(4-(5-chlorobenzoxazol-2-yl)phenyl)propanamide] | 55.7 ± 3.2 µM
180 to 182 °C | – | – | – | – | – | O=C(CN1CCCCC1)Nc1ccc(-c2nc3cc(Cl)ccc3o2)cc1 [Compound 6, N-(4-(5-chlorobenzoxazol-2-yl)phenyl)-2-(piperidin-1-yl)acetamide] | 42.5 ± 2.8 µM
178 to 180 °C | – | – | – | – | – | O=C(CN1CCOCC1)Nc1ccc(-c2nc3cc(Cl)ccc3o2)cc1 [Compound 7, N-(4-(5-chlorobenzoxazol-2-yl)phenyl)-2-morpholinoacetamide] | 51.6 ± 3 µM
179 to 181 °C | – | – | – | – | – | CN1CCN(CC(=O)Nc2ccc(-c3nc4cc(Cl)ccc4o3)cc2)CC1 [Compound 8, N-(4-(5-chlorobenzoxazol-2-yl)phenyl)-2-(4-methylpiperazin-1-yl)acetamide] | 30.9 ± 2.3 µM
153 to 155 °C | – | – | – | – | – | CCN1CCN(CC(=O)Nc2ccc(-c3nc4cc(Cl)ccc4o3)cc2)CC1 [Compound 9, N-(4-(5-chlorobenzoxazol-2-yl)phenyl)-2-(4-ethylpiperazin-1-yl)acetamide] | 39.5 ± 2.6 µM
195 to 197 °C | – | – | – | – | – | O=C(CN1CCN(Cc2ccccc2)CC1)Nc1ccc(-c2nc3cc(Cl)ccc3o2)cc1 [Compound 10, 2-(4-benzylpiperazin-1-yl)-N-(4-(5-chlorobenzoxazol-2-yl)phenyl)acetamide] | 71.7 ± 3.5 µM
167 to 169 °C | 33.28% | 46.83% | 75.72% | 90.54% | 0.084 ± 0.005 µM | CCN1CCN(CCC(=O)Nc2ccc(-c3nc4cc(Cl)ccc4o3)cc2)CC1 [Compound 14, N-(4-(5-chlorobenzoxazol-2-yl)phenyl)-3-(4-ethylpiperazin-1-yl)propanamide] | 10.8 ± 0.9 µM
182 to 184 °C | – | – | – | – | – | O=C(CCN1CCN(Cc2ccccc2)CC1)Nc1ccc(-c2nc3cc(Cl)ccc3o2)cc1 [Compound 15, 3-(4-benzylpiperazin-1-yl)-N-(4-(5-chlorobenzoxazol-2-yl)phenyl)propanamide] | 35.3 ± 2.5 µM
231 to 233 °C | – | – | – | – | – | O=C(CN1CCN(c2ccccc2)CC1)Nc1ccc(-c2nc3cc(Cl)ccc3o2)cc1 [Compound 16, N-(4-(5-chlorobenzoxazol-2-yl)phenyl)-2-(4-phenylpiperazin-1-yl)acetamide] | 78.8 ± 3.8 µM
218 to 220 °C | – | – | – | – | – | COc1ccccc1N1CCN(CC(=O)Nc2ccc(-c3nc4cc(Cl)ccc4o3)cc2)CC1 [Compound 17, N-(4-(5-chlorobenzoxazol-2-yl)phenyl)-2-(4-(2-methoxyphenyl)piperazin-1-yl)acetamide] | 48 ± 2.9 µM
239 to 241 °C | – | – | – | – | – | O=C(CCN1CCN(c2ccccc2)CC1)Nc1ccc(-c2nc3cc(Cl)ccc3o2)cc1 [Compound 18, N-(4-(5-chlorobenzoxazol-2-yl)phenyl)-3-(4-phenylpiperazin-1-yl)propanamide] | 19.2 ± 1.6 µM
211 to 213 °C | – | – | – | – | – | COc1ccccc1N1CCN(CCC(=O)Nc2ccc(-c3nc4cc(Cl)ccc4o3)cc2)CC1 [Compound 19, N-(4-(5-chlorobenzoxazol-2-yl)phenyl)-3-(4-(2-methoxyphenyl)piperazin-1-yl)propanamide] | 22.5 ± 1.9 µM
158 to 160 °C | – | – | – | – | – | O=C(CNCc1ccccc1)Nc1ccc(-c2nc3cc(Cl)ccc3o2)cc1 [Compound 20, 2-(benzylamino)-N-(4-(5-chlorobenzoxazol-2-yl)phenyl)acetamide] | 47.6 ± 2.8 µM
133 to 135 °C | 21.36% | 38.75% | 55.9% | 86.92% | 0.292 ± 0.016 µM | CCN(CC)CC(=O)Nc1ccc(-c2nc3cc(Cl)ccc3o2)cc1 [Compound 26, N-(4-(5-chlorobenzoxazol-2-yl)phenyl)-2-(diethylamino)acetamide] | 18.6 ± 1.3 µM

The remaining lines, values behind:

SMILES | melting point | %inh of PARP-2 (Table S2 raw data) (PARP-2 enzyme; conc 0.01 (ng/ml)) | %inh of PARP-2 (Table S2 raw data) (PARP-2 enzyme; conc 0.1 (ng/ml)) | %inh of PARP-2 (Table S2 raw data) (PARP-2 enzyme; conc 1 (ng/ml)) | %inh of PARP-2 (Table S2 raw data) (PARP-2 enzyme; conc 10 (ng/ml)) | IC50 (PARP-2 enzyme) | IC50 (MDA-MB-231)
Nc1ccc(-c2nc3cc(Cl)ccc3o2)cc1 [Compound 3, 4-(5-chlorobenzoxazol-2-yl)aniline] | – | – | – | – | – | – | 24 ± 1.8 µM
O=C(CNCCc1ccccc1)Nc1ccc(-c2nc3cc(Cl)ccc3o2)cc1 [Compound 21, N-(4-(5-chlorobenzoxazol-2-yl)phenyl)-2-(phenethylamino)acetamide] | 129 to 131 °C | 20.88% | 36.15% | 52.41% | 81.94% | 0.406 ± 0.022 µM | 12.2 ± 1 µM
O=C(CNCCCc1ccccc1)Nc1ccc(-c2nc3cc(Cl)ccc3o2)cc1 [Compound 22, N-(4-(5-chlorobenzoxazol-2-yl)phenyl)-2-((3-phenylpropyl)amino)acetamide] | 93 to 95 °C | 27.08% | 33.43% | 58.97% | 86.49% | 0.267 ± 0.015 µM | 17.4 ± 1.4 µM
O=C(CCNCc1ccccc1)Nc1ccc(-c2nc3cc(Cl)ccc3o2)cc1 [Compound 23, 3-(benzylamino)-N-(4-(5-chlorobenzoxazol-2-yl)phenyl)propanamide] | 109 to 111 °C | – | – | – | – | – | 62.1 ± 3.4 µM
O=C(CCNCCc1ccccc1)Nc1ccc(-c2nc3cc(Cl)ccc3o2)cc1 [Compound 24, N-(4-(5-chlorobenzoxazol-2-yl)phenyl)-3-(phenethylamino)propanamide] | 73 to 75 °C | – | – | – | – | – | 26.5 ± 2.1 µM
O=C(CCNCCCc1ccccc1)Nc1ccc(-c2nc3cc(Cl)ccc3o2)cc1 [Compound 25, N-(4-(5-chlorobenzoxazol-2-yl)phenyl)-3-((3-phenylpropyl)amino)propanamide] | 87 to 89 °C | 36.11% | 47.92% | 73.45% | 88.59% | 0.074 ± 0.004 µM | 15.6 ± 1.2 µM
[N-]=[N+]=Nc1ccc(-c2nc3cc(Cl)ccc3o2)cc1 [Compound 28, 2-(4-azidophenyl)-5-chlorobenzoxazole] | 167 to 169 °C | – | – | – | – | – | > 100 µM
CCOC(=O)c1nnn(-c2ccc(-c3nc4cc(Cl)ccc4o3)cc2)c1C [Compound 29, Ethyl 1-(4-(5-chlorobenzoxazol-2-yl)phenyl)-5-methyl-1H-1,2,3-triazole-4-carboxylate] | 251 to 253 °C | – | – | – | – | – | 76 ± 3.8 µM
CC(=O)c1nnn(-c2ccc(-c3nc4cc(Cl)ccc4o3)cc2)c1C [Compound 30, 1-(1-(4-(5-chlorobenzoxazol-2-yl)phenyl)-5-methyl-1H-1,2,3-triazol-4-yl)ethan-1-one] | 212 to 214 °C | – | – | – | – | – | 73.9 ± 3.6 µM
CNC(=O)c1cc(Oc2ccc(NC(=O)Nc3ccc(Cl)c(C(F)(F)F)c3)cc2)ccn1 [Sorafenib, reference compound] | – | – | – | – | – | – | 7.47 ± 0.3 µM
